Measurements published in patent publication US20120045393A1 (priority 2009, published 2012).
Where two headings read alike, the source gives them in different places. Non-standard residues stand in square brackets, D forms with d. Residues, ends and D or L forms follow the SMILES beside them. *: point of attachment. DOTA = O=C(O)CN1CCN(CC(=O)O)CCN(CC(=O)*)CCN(CC(=O)O)CC1; Bpa = N[C@@H](Cc1ccc(C(=O)c2ccccc2)cc1)C(=O)O; d2Nal = N[C@H](Cc1ccc2ccccc2c1)C(=O)O; 3Pal = N[C@@H](Cc1cccnc1)C(=O)O; azaGly = NNC(=O)O; Sar = CNCC(=O)O

Test system: LHRH binding sites on human ovarian cancer cells (EFO-27)
[1] = Table 5: modifications of amino acids at positions 1 and 2, in vitro binding on EFO-27 cells
[2] = EFO-27 cells, competition with [125I-Tyr8]BRU-2477, 90 min
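Note: Cell-associated radioactivity on confluent EFO-27 monolayers in 96-well plates, measured by microplate scintillation counting.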

Compound | EC50 [nM] | other results
N=C(N)NCCC[C@H](NC(=O)[C@H]1Cc2ccccc2CN1C(=O)CNC(=O)CN1CCN(CC(=O)O)CCN(CC(=O)O)CCN(CC(=O)O)CC1)C(=O)N[C@@H](Cc1c[nH]c2ccccc12)C(=O)N[C@@H](CO)C(=O)N[C@@H](Cc1c[nH]cn1)C(=O)N[C@H](CCCNC(=N)N)C(=O)N[C@@H](Cc1c[nH]c2ccccc12)C(=O)N[C@@H](Cc1ccc(C(=O)c2ccccc2)cc1)C(=O)N1CCC[C@H]1C(=O)NNC(N)=O [BRU-3067] | – | EC50 [1]: 510 nM
CN(CC(=O)N[C@@H](Cc1cncn1C)C(=O)N[C@@H](Cc1c[nH]c2ccccc12)C(=O)N[C@@H](CO)C(=O)N[C@@H](Cc1c[nH]cn1)C(=O)N[C@H](CCCNC(=N)N)C(=O)N[C@@H](Cc1c[nH]c2ccccc12)C(=O)N[C@@H](Cc1ccc(C(=O)c2ccccc2)cc1)C(=O)N1CCC[C@H]1C(=O)NNC(N)=O)C(=O)CN1CCN(CC(=O)O)CCN(CC(=O)O)CCN(CC(=O)O)CC1 [BRU-2759] | – | EC50 [1]: 10000 nM
CN(C(=O)CN1CCN(CC(=O)O)CCN(CC(=O)O)CCN(CC(=O)O)CC1)[C@H](Cc1ccc2ccccc2c1)C(=O)N[C@@H](Cc1c[nH]cn1)C(=O)N[C@@H](Cc1c[nH]c2ccccc12)C(=O)N[C@@H](CO)C(=O)N[C@@H](Cc1c[nH]cn1)C(=O)N[C@H](CCCNC(=N)N)C(=O)N[C@@H](Cc1c[nH]c2ccccc12)C(=O)N[C@@H](Cc1ccc(C(=O)c2ccccc2)cc1)C(=O)N1CCC[C@H]1C(=O)NNC(N)=O [BRU-3003] | 760 | –
N=C(N)NCCC[C@H](NC(=O)[C@H](Cc1ccc2ccccc2c1)NC(=O)CN1CCN(CC(=O)O)CCN(CC(=O)O)CCN(CC(=O)O)CC1)C(=O)N[C@@H](Cc1c[nH]c2ccccc12)C(=O)N[C@@H](CO)C(=O)N[C@@H](Cc1c[nH]cn1)C(=O)N[C@H](CCCNC(=N)N)C(=O)N[C@@H](Cc1c[nH]c2ccccc12)C(=O)N[C@@H](Cc1ccc(C(=O)c2ccccc2)cc1)C(=O)N1CCC[C@H]1C(=O)NNC(N)=O [BRU-3051] | – | EC50 [2]: 620 nM
N=C(N)NCCC[C@H](NC(=O)[C@@H](Cc1ccc2ccccc2c1)NC(=O)CN1CCN(CC(=O)O)CCN(CC(=O)O)CCN(CC(=O)O)CC1)C(=O)N[C@@H](Cc1c[nH]c2ccccc12)C(=O)N[C@@H](CO)C(=O)N[C@@H](Cc1c[nH]cn1)C(=O)N[C@H](CCCNC(=N)N)C(=O)N[C@@H](Cc1c[nH]c2ccccc12)C(=O)N[C@@H](Cc1ccc(C(=O)c2ccccc2)cc1)C(=O)N1CCC[C@H]1C(=O)NCC(=O)NCCCCO [compound 2978] | – | EC50 [2]: 2000 nM
N=C(N)NCCC[C@H](NC(=O)[C@@H]1Cc2ccccc2CN1C(=O)CNC(=O)CN1CCN(CC(=O)O)CCN(CC(=O)O)CCN(CC(=O)O)CC1)C(=O)N[C@@H](Cc1c[nH]c2ccccc12)C(=O)N[C@@H](CO)C(=O)N[C@@H](Cc1c[nH]cn1)C(=O)N[C@H](CCCNC(=N)N)C(=O)N[C@@H](Cc1c[nH]c2ccccc12)C(=O)N[C@@H](Cc1ccc(C(=O)c2ccccc2)cc1)C(=O)N1CCC[C@H]1C(=O)NNC(N)=O [BRU-3052] | – | EC50 [1]: 550 nM
CNCC(=O)N[C@@H](Cc1c[nH]cn1)C(=O)N[C@@H](Cc1c[nH]c2ccccc12)C(=O)N[C@@H](CO)C(=O)N[C@@H](Cc1c[nH]cn1)C(=O)N[C@H](CCCNC(=N)N)C(=O)N[C@@H](Cc1c[nH]c2ccccc12)C(=O)N[C@@H](Cc1ccc(O)cc1)C(=O)N1CCC[C@H]1C(=O)NNC(N)=O [BRU-2439, [Sar^1, Darg^6, azaGly^10]LHRH-II] (HELM PEPTIDE1{[Sar].H.W.S.H.[dR].W.Y.P.[O=C(NN[*:1])[*:2]].[am]}$$$$V2.0; N-terminus assumed) | 250 | –
CN(CC(=O)N[C@@H](Cc1cccnc1)C(=O)N[C@@H](Cc1c[nH]c2ccccc12)C(=O)N[C@@H](CO)C(=O)N[C@@H](Cc1c[nH]cn1)C(=O)N[C@H](CCCNC(=N)N)C(=O)N[C@@H](Cc1c[nH]c2ccccc12)C(=O)N[C@@H](Cc1ccc(C(=O)c2ccccc2)cc1)C(=O)N1CCC[C@H]1C(=O)NNC(N)=O)C(=O)CN1CCN(CC(=O)O)CCN(CC(=O)O)CCN(CC(=O)O)CC1 [BRU-2818] ({DOTA}-[Sar][3Pal]WSH[dR]W[Bpa]P[azaGly]-NH2) | 1620 | –
CSCC[C@H](NC(=O)[C@H](Cc1c[nH]c2ccccc12)NC(=O)[C@H](CCCNC(=N)N)NC(=O)[C@@H](Cc1ccc2ccccc2c1)NC(=O)CN1CCN(CC(=O)O)CCN(CC(=O)O)CCN(CC(=O)O)CC1)C(=O)N[C@@H](Cc1c[nH]cn1)C(=O)N[C@H](CCCNC(=N)N)C(=O)N[C@@H](Cc1c[nH]c2ccccc12)C(=O)N[C@@H](Cc1ccc(C(=O)c2ccccc2)cc1)C(=O)N1CCC[C@H]1C(=O)NNC(N)=O [BRU-2964] ({DOTA}-[d2Nal]RWMH[dR]W[Bpa]P[azaGly]-NH2) | 220 | more potency than the comparator analog (BRU-2813 vs BRU-2666, BRU-2964 vs BRU-2813): 30%
CN(CC(=O)N[C@@H](Cc1c[nH]cn1)C(=O)N[C@@H](Cc1c[nH]c2ccccc12)C(=O)N[C@@H](CO)C(=O)N[C@@H](Cc1c[nH]cn1)C(=O)N[C@H](CCCNC(N)=O)C(=O)N[C@@H](Cc1c[nH]c2ccccc12)C(=O)N[C@@H](Cc1ccc(C(=O)c2ccccc2)cc1)C(=O)N1CCC[C@H]1C(=O)NNC(N)=O)C(=O)CN1CCN(CC(=O)O)CCN(CC(=O)O)CCN(CC(=O)O)CC1 [BRU-2729] | 14200 | –
CN(CC(=O)N[C@@H](Cc1c[nH]cn1)C(=O)N[C@@H](Cc1c[nH]c2ccccc12)C(=O)N[C@@H](CO)C(=O)N[C@@H](Cc1c[nH]cn1)C(=O)N[C@H](CCCNC(=N)N)C(=O)N[C@@H](Cc1c[nH]c2ccccc12)C(=O)N1CCC[C@H]1C(=O)NNC(N)=O)C(=O)CN1CCN(CC(=O)O)CCN(CC(=O)O)CCN(CC(=O)O)CC1 [BRU-2767] (HELM PEPTIDE1{[O=C(O)CN1CCN(CC(=O)O)CCN(CC(=O)[*:2])CCN(CC(=O)O)CC1].[Sar].H.W.S.H.[dR].W.P.[O=C(NN[*:1])[*:2]].[am]}$$$$V2.0) | 10000 | –
N=C(N)NCCC[C@H](NC(=O)[C@@H](Cc1ccc2ccccc2c1)NC(=O)CN1CCN(CC(=O)O)CCN(CC(=O)O)CCN(CC(=O)O)CC1)C(=O)N[C@H](Cc1c[nH]c2ccccc12)C(=O)N[C@@H](CO)C(=O)N[C@@H](Cc1c[nH]cn1)C(=O)N[C@H](CCCNC(=N)N)C(=O)N[C@@H](Cc1c[nH]c2ccccc12)C(=O)N[C@@H](Cc1ccc(C(=O)c2ccccc2)cc1)C(=O)N1CCC[C@H]1C(=O)NNC(N)=O [compound 3112] | – | EC50 (Table 12: modification of amino acid at position 3, EFO-27 cells): 850 nM
N=C(N)NCCC[C@@H](NC(=O)[C@H](Cc1c[nH]cn1)NC(=O)[C@H](CO)NC(=O)[C@H](Cc1c[nH]c2ccccc12)NC(=O)[C@H](Cc1c[nH]cn1)NC(=O)[C@@H](Cc1ccc(O)cc1)NC(=O)CN1CCN(CC(=O)O)CCN(CC(=O)O)CCN(CC(=O)O)CC1)C(=O)N[C@@H](Cc1c[nH]c2ccccc12)C(=O)N[C@@H](Cc1ccc(C(=O)c2ccccc2)cc1)C(=O)N1CCC[C@H]1C(=O)NNC(N)=O [BRU-2870] ({DOTA}-[dY]HWSH[dR]W[Bpa]P[azaGly]-NH2) | – | EC50 [1]: 10000 nM

The next lines start with results.

EC50 [nM] | Compound | other results
670 | N=C(N)NCCC[C@H](NC(=O)[C@@H](Cc1ccc2ccccc2c1)NC(=O)CN1CCN(CC(=O)O)CCN(CC(=O)O)CCN(CC(=O)O)CC1)C(=O)N[C@@H](Cc1c[nH]c2ccccc12)C(=O)N[C@@H](CO)C(=O)N[C@@H](Cc1c[nH]cn1)C(=O)N[C@H](CCCNC(=N)N)C(=O)N[C@@H](Cc1c[nH]c2ccccc12)C(=O)N[C@@H](Cc1ccc(C(=O)c2ccccc2)cc1)C(=O)O [compound 3064] ({DOTA}-[d2Nal]RWSH[dR]W[Bpa]-OH; N-terminus assumed) | –
1130 | CC(C)C[C@H](NC(=O)[C@H](Cc1c[nH]c2ccccc12)NC(=O)[C@H](CCCNC(=N)N)NC(=O)[C@@H](Cc1ccc2ccccc2c1)NC(=O)CN1CCN(CC(=O)O)CCN(CC(=O)O)CCN(CC(=O)O)CC1)C(=O)N[C@@H](Cc1c[nH]cn1)C(=O)N[C@H](CCCNC(=N)N)C(=O)N[C@@H](Cc1c[nH]c2ccccc12)C(=O)N[C@@H](Cc1ccc(C(=O)c2ccccc2)cc1)C(=O)N1CCC[C@H]1C(=O)NNC(N)=O [compound 3113] ({DOTA}-[d2Nal]RWLH[dR]W[Bpa]P[azaGly]-NH2) | –
450 | N=C(N)NCCC[C@H](NC(=O)[C@@H](Cc1ccc2ccccc2c1)NC(=O)CN1CCN(CC(=O)O)CCN(CC(=O)O)CCN(CC(=O)O)CC1)C(=O)N[C@@H](Cc1c[nH]c2ccccc12)C(=O)N[C@@H](CO)C(=O)N[C@@H](Cc1c[nH]cn1)C(=O)N[C@H](CCCNC(=N)N)C(=O)N[C@@H](Cc1c[nH]c2ccccc12)C(=O)N[C@@H](Cc1ccc(C(=O)c2ccccc2)cc1)C(=O)N1CCC[C@H]1C(=O)N[C@H](CO)Cc1ccccc1 [compound 2983] | –
400 | N=C(N)NCCC[C@H](NC(=O)[C@@H](Cc1ccc2ccccc2c1)NC(=O)CN1CCN(CC(=O)O)CCN(CC(=O)O)CCN(CC(=O)O)CC1)C(=O)N[C@@H](Cc1c[nH]c2ccccc12)C(=O)N[C@@H](CO)C(=O)N[C@@H](Cc1c[nH]cn1)C(=O)N[C@H](CCCNC(=N)N)C(=O)N[C@@H](Cc1c[nH]c2ccccc12)C(=O)N[C@@H](Cc1ccc(C(=O)c2ccccc2)cc1)C(=O)N1CCC[C@H]1C(=O)NC(=N)N [compound 2984] | –
400 ± 250 | CNCC(=O)N[C@@H](CCCNC(=N)N)C(=O)N[C@@H](Cc1c[nH]c2ccccc12)C(=O)N[C@@H](CO)C(=O)N[C@@H](Cc1c[nH]cn1)C(=O)N[C@H](CCCNC(=N)N)C(=O)N[C@@H](Cc1c[nH]c2ccccc12)C(=O)N[C@@H](Cc1ccc(C(=O)c2ccccc2)cc1)C(=O)N1CCC[C@H]1C(=O)NCCCCCNC(=O)CN1CCN(CC(=O)O)CCN(CC(=O)O)CCN(CC(=O)O)CC1 [compound 3085] | –
210 ± 60 | N=C(N)NCCC[C@H](NC(=O)[C@H](N)Cc1ccc2ccccc2c1)C(=O)N[C@@H](Cc1c[nH]c2ccccc12)C(=O)N[C@@H](CO)C(=O)N[C@@H](Cc1c[nH]cn1)C(=O)N[C@H](CCCNC(=N)N)C(=O)N[C@@H](Cc1c[nH]c2ccccc12)C(=O)N[C@@H](Cc1ccc(C(=O)c2ccccc2)cc1)C(=O)N1CCC[C@H]1C(=O)NCCOCCNC(=O)CN1CCN(CC(=O)O)CCN(CC(=O)O)CCN(CC(=O)O)CC1 [compound 2991] | –
560 | CC(C)C[C@H](NC(=O)[C@H](CCCNC(=N)N)NC(=O)[C@@H](Cc1ccc2ccccc2c1)NC(=O)CN1CCN(CC(=O)O)CCN(CC(=O)O)CCN(CC(=O)O)CC1)C(=O)N[C@@H](CO)C(=O)N[C@@H](Cc1c[nH]cn1)C(=O)N[C@H](CCCNC(=N)N)C(=O)N[C@@H](Cc1c[nH]c2ccccc12)C(=O)N[C@@H](Cc1ccc(C(=O)c2ccccc2)cc1)C(=O)N1CCC[C@H]1C(=O)NNC(N)=O [compound 3108] ({DOTA}-[d2Nal]RLSH[dR]W[Bpa]P[azaGly]-NH2) | –
